Target: IRAK4 (Homo sapiens (Human), UniProt Q9NWZ3)
Test: IRAK-4 AlphaScreen biochemical kinase assay
Details: 1 nM IRAK4, 1 mM ATP, 3.5 h at RT
Experimental: The biochemical assay is in a AlphaScreen format. The kinase reaction is based on the IRAK-4 phosphorylation of a biotin labeled peptide. The phosphopeptide is incubated with anti-phosphothreonine antibody as well as streptavidin- and protein A-coated beads. Binding of the protein-A coated beads to the antibody and the streptavidin beads to the peptide, leads to an energy transfer from one bead to the other, ultimately producing a luminescent/fluorescent signal.

Chain of IRAK4 (Q9NWZ3 whole entry, species assumed): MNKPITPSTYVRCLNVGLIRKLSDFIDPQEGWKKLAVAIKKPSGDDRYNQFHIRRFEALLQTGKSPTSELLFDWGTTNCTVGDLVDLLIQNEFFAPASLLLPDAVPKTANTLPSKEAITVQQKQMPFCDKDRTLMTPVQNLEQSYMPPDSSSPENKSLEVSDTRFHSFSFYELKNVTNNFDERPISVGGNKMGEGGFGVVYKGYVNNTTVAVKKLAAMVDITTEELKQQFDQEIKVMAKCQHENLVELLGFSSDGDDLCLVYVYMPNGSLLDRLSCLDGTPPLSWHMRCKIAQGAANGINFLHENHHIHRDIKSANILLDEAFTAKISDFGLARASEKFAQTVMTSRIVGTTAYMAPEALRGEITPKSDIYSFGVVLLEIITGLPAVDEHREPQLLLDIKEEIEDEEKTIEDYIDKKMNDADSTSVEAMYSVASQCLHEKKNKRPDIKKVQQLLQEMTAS

Row | SMILES | IC50 [nM]
1 | CC(N)c1cc(-c2ccc3cnn(-c4cccc(C(F)(F)F)n4)c3c2)ccn1 (stereo not drawn) [Example 91, 1-(4-(1-(6-(trifluoromethyl)pyridin-2-yl)-1H-indazol-6-yl)pyridin-2-yl)ethanamine] | 100 to 1000
2 | N#Cc1cncc(-c2ccc3cnn(-c4cccc(C(F)(F)F)n4)c3c2)n1 [Example 92, 6-(1-(6-(trifluoromethyl)pyridin-2-yl)-1H-indazol-6-yl)pyrazine-2-carbonitrile] | 1000 to 10000
3 | NCc1cncc(-c2ccc3cnn(-c4cccc(C(F)(F)F)n4)c3c2)n1 [Example 93, (6-(1-(6-(trifluoromethyl)pyridin-2-yl)-1H-indazol-6-yl)pyrazin-2-yl)methanamine] | 1000 to 10000
4 | N#Cc1nccc(-c2ccc3cnn(-c4cccc(C(F)(F)F)n4)c3c2)n1 [Example 94, 4-(1-(6-(trifluoromethyl)pyridin-2-yl)-1H-indazol-6-yl)pyrimidine-2-carbonitrile] | 1000 to 10000
5 | Nc1cncc(-c2ccc3cnn(-c4cccc(C(F)(F)F)n4)c3c2)n1 [Example 96, 6-(1-(6-(trifluoromethyl)pyridin-2-yl)-1H-indazol-6-yl)pyrazin-2-amine] | 100 to 1000
6 | FC(F)(F)c1cccc(-n2ncc3ccc(-c4cccc(C5CCCN5)n4)cc32)n1 (stereo not drawn) [Example 97, 6-(6-(pyrrolidin-2-yl)pyridin-2-yl)-1-(6-(trifluoromethyl)pyridin-2-yl)-1H-indazole] | 100 to 1000
7 | CN1CCCC1c1cccc(-c2ccc3cnn(-c4cccc(C(F)(F)F)n4)c3c2)n1 (stereo not drawn) [Example 98, 6-(6-(1-methylpyrrolidin-2-yl)pyridin-2-yl)-1-(6-(trifluoromethyl)pyridin-2-yl)-1H-indazole] | 1000 to 10000
8 | Cc1cccc(-n2ncc3c(C(F)(F)F)cc(-c4cccc(C(C)N)n4)cc32)n1 (stereo not drawn) [Example 111, 1-(6-(1-(6-methylpyridin-2-yl)-4-(trifluoromethyl)-1H-indazol-6-yl)pyridin-2-yl)ethanamine] | 100 to 1000
9 | Cc1cccc(-n2ncc3c(C(=O)O)cc(-c4cccc(C(C)N)n4)cc32)n1 (stereo not drawn) [Example 113, 6-(6-(1-aminoethyl)pyridin-2-yl)-1-(6-methylpyridin-2-yl)-1H-indazole-4-carboxylic acid] | 100 to 1000
10 | Cc1cccc(-n2ncc3c(CO)cc(-c4cccc(C(C)N)n4)cc32)n1 (stereo not drawn) [Example 114, (6-(6-(1-aminoethyl)pyridin-2-yl)-1-(6-methylpyridin-2-yl)-1H-indazol-4-yl)methanol] | < 100
11 | CNC(=O)c1cc(-c2cccc(C(C)N)n2)cc2c1cnn2-c1cccc(C)n1 (stereo not drawn) [Example 115, 6-(6-(1-aminoethyl)pyridin-2-yl)-N-methyl-1-(6-methylpyridin-2-yl)-1H-indazole-4-carboxamide] | < 100
12 | CCc1cccc(-n2ncc3ccc(-c4cccc(C(C)N)n4)cc32)n1 (stereo not drawn) [Example 120, 1-(6-(1-(6-ethylpyridin-2-yl)-1H-indazol-6-yl)pyridin-2-yl)ethanamine] | < 100

The next lines start with the values.

Row | IC50 [nM] | SMILES
13 | < 100 | CC(N)c1cncc(-c2ccc3cnn(-c4cccc(C(F)(F)F)n4)c3c2)c1 (stereo not drawn) [Example 90, 1-(5-(1-(6-(trifluoromethyl)pyridin-2-yl)-1H-indazol-6-yl)pyridin-3-yl)ethanamine]
14 | 1000 to 10000 | NCc1nccc(-c2ccc3cnn(-c4cccc(C(F)(F)F)n4)c3c2)n1 [Example 95, (4-(1-(6-(trifluoromethyl)pyridin-2-yl)-1H-indazol-6-yl)pyrimidin-2-yl)methanamine]
15 | < 100 | Cc1cccc(-c2ncc3ccc(-c4cccc(C(C)N)n4)cn23)n1 (stereo not drawn) [Example 99, 1-(6-(3-(6-methylpyridin-2-yl)imidazo[1,5-a]pyridin-6-yl)pyridin-2-yl)ethanamine]
16 | < 100 | Cc1cccc(-n2ncc3c(N)cc(-c4cccc(C(C)N)n4)cc32)n1 (stereo not drawn) [Example 100, 6-(6-(1-aminoethyl)pyridin-2-yl)-1-(6-methylpyridin-2-yl)-1H-indazol-4-amine]
17 | < 100 | CNc1cc(-c2cccc(C(C)N)n2)cc2c1cnn2-c1cccc(C)n1 (stereo not drawn) [Example 101, 6-(6-(1-aminoethyl)pyridin-2-yl)-N-methyl-1-(6-methylpyridin-2-yl)-1H-indazol-4-amine]
18 | < 100 | Cc1cccc(-n2ncc3c(N(C)C)cc(-c4cccc(C(C)N)n4)cc32)n1 (stereo not drawn) [Example 102, 6-(6-(1-aminoethyl)pyridin-2-yl)-N,N-dimethyl-1-(6-methylpyridin-2-yl)-1H-indazol-4-amine]
19 | 100 to 1000 | CC(=O)Nc1cc(-c2cccc(C(C)N)n2)cc2c1cnn2-c1cccc(C)n1 (stereo not drawn) [Example 103, N-(6-(6-(1-aminoethyl)pyridin-2-yl)-1-(6-methylpyridin-2-yl)-1H-indazol-4-yl)acetamide]
20 | 1000 to 10000 | Cc1cccc(-n2ncc3c(CN)cc(-c4cccc(C(C)N)n4)cc32)n1 (stereo not drawn) [Example 104, 1-(6-(4-(aminomethyl)-1-(6-methylpyridin-2-yl)-1H-indazol-6-yl)pyridin-2-yl)ethanamine]
21 | 100 to 1000 | CC(=O)NCc1cc(-c2cccc(C(C)N)n2)cc2c1cnn2-c1cccc(C)n1 (stereo not drawn) [Example 105, N-((6-(6-(1-aminoethyl)pyridin-2-yl)-1-(6-methylpyridin-2-yl)-1H-indazol-4-yl)methyl)acetamide]
22 | < 100 | Cc1cccc(-n2ncc3c(Cl)cc(-c4cccc(C(C)N)n4)cc32)n1 (stereo not drawn) [Example 106, 1-(6-(4-chloro-1-(6-methylpyridin-2-yl)-1H-indazol-6-yl)pyridin-2-yl)ethanamine]
23 | 100 to 1000 | Cc1cccc(-n2ncc3c(C4CC4)cc(-c4cccc(C(C)N)n4)cc32)n1 (stereo not drawn) [Example 107, 1-(6-(4-cyclopropyl-1-(6-methylpyridin-2-yl)-1H-indazol-6-yl)pyridin-2-yl)ethanamine]
24 | < 100 | C=C(C)c1cc(-c2cccc(C(C)N)n2)cc2c1cnn2-c1cccc(C)n1 (stereo not drawn) [Example 108, 1-(6-(1-(6-methylpyridin-2-yl)-4-(prop-1-en-2-yl)-1H-indazol-6-yl)pyridin-2-yl)ethanamine]
25 | 100 to 1000 | CCc1cc(-c2cccc(C(C)N)n2)cc2c1cnn2-c1cccc(C)n1 (stereo not drawn) [Example 109, 1-(6-(4-ethyl-1-(6-methylpyridin-2-yl)-1H-indazol-6-yl)pyridin-2-yl)ethanamine]
26 | 100 to 1000 | Cc1cccc(-n2ncc3c(C(C)C)cc(-c4cccc(C(C)N)n4)cc32)n1 (stereo not drawn) [Example 110, 1-(6-(4-isopropyl-1-(6-methylpyridin-2-yl)-1H-indazol-6-yl)pyridin-2-yl)ethanamine]
27 | < 100 | COC(=O)c1cc(-c2cccc(C(C)N)n2)cc2c1cnn2-c1cccc(C)n1 (stereo not drawn) [Example 112, methyl 6-(6-(1-aminoethyl)pyridin-2-yl)-1-(6-methylpyridin-2-yl)-1H-indazole-4-carboxylate]
28 | 100 to 1000 | CNC(C)c1cccc(-c2ccc3cnn(-c4cccc(C)n4)c3c2)n1 (stereo not drawn) [Example 116, N-methyl-1-(6-(1-(6-methylpyridin-2-yl)-1H-indazol-6-yl)pyridin-2-yl)ethanamine]
29 | < 100 | CC(N)c1cccc(-c2ccc3cnn(-c4cccc(C5CC5)n4)c3c2)n1 (stereo not drawn) [Example 119, 1-(6-(1-(6-cyclopropylpyridin-2-yl)-1H-indazol-6-yl)pyridin-2-yl)ethanamine]
30 | < 100 | CC(C)c1cccc(-n2ncc3ccc(-c4cccc(C(C)N)n4)cc32)n1 (stereo not drawn) [Example 121, 1-(6-(1-(6-isopropylpyridin-2-yl)-1H-indazol-6-yl)pyridin-2-yl)ethanamine]
